Activity calls are given as the source filed them. Cut-off read from the data, not from the text of the source, for most assays here: actives have a measured EC50 and inactives only a lower limit.
How the values were obtained:
Vero [1] = test: Vero cell cytotoxicity, cytotoxicity control for flavivirus capping enzyme inhibitors (AID 588742); format: functional; details: Chlorocebus sabaeus
HeLa = test: HeLa cell cytotoxicity, dose response, cytotoxicity control for MITF activator project, CellTiter-Glo luminescence, cherry-pick samples (AID 540259); format: functional, cell-based; details: Homo sapiens
Protein Wnt-3a = Protein Wnt-3a (Mus musculus, UniProt P27467); test: Wnt3a-driven reporter signaling inhibition, dose response, selectivity assay for Gli-SUFU antagonist project, Wnt-LIGHT cells, luminescence (AID 651570); format: functional; details: read-out: IC50_Mean;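 note: Wnt-LIGHT reporter cells stimulated with conditioned medium from Wnt3a-producing cells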
Sequence of Protein Wnt-3a (P27467 whole entry): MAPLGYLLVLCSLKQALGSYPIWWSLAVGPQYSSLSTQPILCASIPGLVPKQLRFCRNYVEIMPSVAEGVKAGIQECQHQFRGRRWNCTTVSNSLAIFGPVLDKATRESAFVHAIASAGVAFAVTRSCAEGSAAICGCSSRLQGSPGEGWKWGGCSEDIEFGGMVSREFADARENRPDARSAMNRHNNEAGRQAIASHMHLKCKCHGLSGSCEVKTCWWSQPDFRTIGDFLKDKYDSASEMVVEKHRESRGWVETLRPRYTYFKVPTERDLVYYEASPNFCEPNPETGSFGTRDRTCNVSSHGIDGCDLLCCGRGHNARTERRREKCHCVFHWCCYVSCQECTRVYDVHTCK

[2] = cytotoxicity toward NIH3T3 fibroblasts, dose response, counter-screen, cell-based, ATP luminescence, mouse fibroblasts (AID 2010); format: functional;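 note: cells exposed to compound for about 90 hours before reading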
[3] = inhibitors of intracellular T. cruzi replication, confirmation, NIH3T3 host cells, beta-gal luminescence (AID 2044); format: functional, cell-based;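 note: intracellular parasites grown in NIH/3T3 mouse fibroblasts as host cells; luminescent beta-galactosidase reporter signal from transgenic T. cruzi replicating inside host cells; inhibitors lower the luminescence signal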
[4] = biological target: Dual specificity protein kinase CLK1 (Homo sapiens, UniProt P49759); test: CLK1 kinase inhibitors, off-target check, dose response, selectivity assay for Dyrk1A inhibitor project, biochemical, cherry-picked samples (AID 588811)
Sequence of Dual specificity protein kinase CLK1 (P49759 whole entry): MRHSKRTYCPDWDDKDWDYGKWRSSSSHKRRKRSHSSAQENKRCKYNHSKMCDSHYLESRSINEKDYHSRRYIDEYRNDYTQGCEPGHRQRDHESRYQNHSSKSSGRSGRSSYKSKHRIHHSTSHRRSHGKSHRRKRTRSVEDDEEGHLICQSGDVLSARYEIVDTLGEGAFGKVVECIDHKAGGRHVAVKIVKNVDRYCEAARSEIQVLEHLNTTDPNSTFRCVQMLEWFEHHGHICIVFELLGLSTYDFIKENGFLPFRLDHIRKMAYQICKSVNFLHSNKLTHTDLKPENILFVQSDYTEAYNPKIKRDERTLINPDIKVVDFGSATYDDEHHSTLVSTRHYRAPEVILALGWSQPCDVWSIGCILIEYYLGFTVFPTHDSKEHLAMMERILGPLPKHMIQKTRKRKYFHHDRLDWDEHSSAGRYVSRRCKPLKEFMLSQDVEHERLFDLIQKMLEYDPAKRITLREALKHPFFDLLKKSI

[5] = biological target: Dual specificity tyrosine-phosphorylation-regulated kinase 1A (Rattus norvegicus, UniProt Q63470); format: biochemical, Homo sapiens
Streptokinase A = biological target: T1, Streptokinase A (Streptococcus pyogenes serotype M1, UniProt P10520); test: S. pyogenes streptokinase expression inhibitors, potency, dose response, plasminogen activation absorbance, OD405 (AID 1914); format: functional, Streptococcus pyogenes M1 GAS;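 note: secreted streptokinase activity via plasminogen activation per viability signal from cell pellet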
T1 sequence (P10520 whole entry): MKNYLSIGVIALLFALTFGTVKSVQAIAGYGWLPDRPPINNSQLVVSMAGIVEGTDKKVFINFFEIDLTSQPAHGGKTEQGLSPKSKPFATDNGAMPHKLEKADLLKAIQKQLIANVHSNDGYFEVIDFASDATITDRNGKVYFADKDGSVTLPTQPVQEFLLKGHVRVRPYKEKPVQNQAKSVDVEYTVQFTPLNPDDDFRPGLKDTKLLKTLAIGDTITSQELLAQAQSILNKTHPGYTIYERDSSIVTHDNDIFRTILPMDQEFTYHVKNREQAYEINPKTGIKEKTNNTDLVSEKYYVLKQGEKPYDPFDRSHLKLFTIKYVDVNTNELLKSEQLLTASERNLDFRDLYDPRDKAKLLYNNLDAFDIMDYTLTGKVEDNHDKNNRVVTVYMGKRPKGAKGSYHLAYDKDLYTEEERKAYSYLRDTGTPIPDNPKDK

[6] = tested on: Streptococcus sp. 'group A'; test: growth inhibition of control SK(-) GAS strain, dose response, counter-screen for streptokinase expression inhibitor project, luminescence, kanamycin, BacTiterGlo, confirmation (AID 1900); format: functional, organism-based; details: Streptococcus sp. 'group A'
Streptococcus = test: Group A Streptococcus viability loss, dose response, counter-screen for streptokinase expression inhibitor project, luminescence, BacTiterGlo (AID 1915); format: functional, organism-based; details: Streptococcus;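 note: potency for reduction of bacterial viability or growth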
Vero [7] = test: cells; format: functional; details: Chlorocebus sabaeus
[8] = cytotoxicity toward DRD oncogenic fibroblasts, dose response, cell-based, non-viral oncogenic, luminescence (AID 1934); format: functional; details: Homo sapiens
BJ [9] = test: cytotoxicity toward BJ-TERT-LT-ST fibroblasts, dose response, cell-based, RAS-independent, luminescence (AID 1935); format: functional; details: Homo sapiens;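 note: BJ fibroblasts immortalized with TERT plus LT and ST oncogenes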
BJ [10] = test: cytotoxicity toward BJ-TERT fibroblasts, dose response, cell-based, RAS-independent, luminescence (AID 1933); format: functional; details: Homo sapiens
BJ [11] = test: cells; format: functional, cell-based; details: Homo sapiens
BJ [12] = test: cytotoxicity toward Ras-transformed BJeLR fibroblasts, dose response, cell-based, alamar blue fluorescence, cherrypicked samples (AID 2631); format: functional; details: Homo sapiens;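 note: confirmatory dose-response assay in RAS-dependent BJ fibroblasts engineered with TERT, LT and ST, with cytotoxicity read by fluorescence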
[13] = biological target: Beta-2 adrenergic receptor (Homo sapiens, UniProt P07550); test: beta2AR agonists driving receptor internalization, dose response, cell-based, FAP fluorogen, flow cytometry, cherry pick 1 (AID 588763); format: functional
Sequence of Beta-2 adrenergic receptor (P07550 whole entry): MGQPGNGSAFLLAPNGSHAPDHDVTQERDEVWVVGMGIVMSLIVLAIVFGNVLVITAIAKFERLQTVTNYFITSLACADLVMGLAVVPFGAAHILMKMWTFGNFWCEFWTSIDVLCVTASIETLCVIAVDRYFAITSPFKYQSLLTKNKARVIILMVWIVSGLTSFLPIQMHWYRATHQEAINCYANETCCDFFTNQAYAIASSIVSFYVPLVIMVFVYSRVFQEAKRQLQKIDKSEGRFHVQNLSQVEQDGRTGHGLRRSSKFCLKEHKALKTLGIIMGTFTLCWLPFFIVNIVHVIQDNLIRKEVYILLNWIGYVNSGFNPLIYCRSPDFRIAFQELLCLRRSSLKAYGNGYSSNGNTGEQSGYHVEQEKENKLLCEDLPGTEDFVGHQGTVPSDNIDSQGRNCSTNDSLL

SMILES: COc1cc(CNc2ccc(O)cc2)cc(Br)c1OCc1ccccc1F
- CC50 (Vero [1]): > 40 µM (active)

SMILES: c1ccc2oc(-c3ccc4[nH]cnc4c3)nc2c1
- AC50 (HeLa): 69.6 µM (active)

SMILES: C=C(C)CSc1nc2sc3c(c2c(=O)n1C1CCCCC1)CCN(C)C3
- IC50 (Protein Wnt-3a): 13.5 µM (active)
- EC50 [2]: > 60 µM (not active)
- EC50 [3]: 0.403 µM (active)

SMILES: CCN1CCN(Cc2ccc(NC(=O)c3ccc(C)c(NC(=O)N4CCNC4=O)c3)cc2C(F)(F)F)CC1
- AC50 [4]: 2.29 µM (active)
- AC50 [5]: 8.71 µM (active)

SMILES: O=C(Nc1nc(-c2ccc3c(c2)OCCO3)cs1)c1ccco1
- EC50 (Streptokinase A): > 150 µM (not active)
- EC50 [6]: 20.1 µM (active)
- EC50 (Streptococcus): > 150 µM (not active)
- AC50 [4]: 3.98 µM (active)
- AC50 [5]: 6.45 µM (active)

SMILES: COc1ccc(/C=N\NC(=O)c2cccc(F)c2)cc1COc1ccccc1
- CC50 (Vero [7]): 0.35 µM (active)
- EC50 [8]: 1.15 µM (active)
- EC50 (BJ [9]): 5.12 µM (inconclusive)
- EC50 (BJ [10]): 0.575 µM (inconclusive)
- EC50 (BJ [11]): 31.5 µM (active)
- EC50 (BJ [12]): 0.286 µM (active)

SMILES: O=C(c1cccc(Cl)c1)N1CCC(C(=O)N2CCN(Cc3ccccc3)CC2)CC1
- EC50 [13]: 5.89 µM (active)

SMILES: C=CCn1c(SCc2ccccc2Cl)nnc1-c1sc2nc(C)cc(C)c2c1N
- EC50 [13]: 0.0757 µM (active)
- EC50 [2]: > 60 µM (not active)
- EC50 [3]: 0.161 µM (active)

From ChEMBL document CHEMBL1201862, “PubChem BioAssay data set” (2004)
